Data set [1] has as its target Mitogen-activated protein kinase 10 (Homo sapiens, UniProt P53779). Description: Inhibition of JNK3 using biotinylated-ATF2 as substrate by HTRF assay. On the technique in general: TR-FRET usually uses a lanthanide donor and a delayed reading to cut background.
Data set [2] addresses Mitogen-activated protein kinase 8 (Homo sapiens, UniProt P45983). Kind of data set: Inhibition of JNK1 using biotinylated-ATF2 as substrate by HTRF assay.
Data set [3] is described as follows: Half life in Sprague-Dawley rat at 1 mg/kg, iv and 2 mg/kg, po. It is filed as ADME, organism-based. Conditions: in vivo.
Data set [4] is described as follows: Oral bioavailability in Sprague-Dawley rat at 2 mg/kg. In kind it is ADME, organism-based. Conditions: in vivo.
A short description of data set [5]: Plasma clearance in Sprague-Dawley rat at 1 mg/kg, iv and 2 mg/kg, po. It is filed as ADME, organism-based.
A short description of data set [6]: AUC in Sprague-Dawley rat at 1 mg/kg, iv and 2 mg/kg, po. It is filed as ADME, organism-based. Conditions: plasma.
Data set [7] in a line: Drug level in C57B16 mouse brain at 10 mg/kg, ip after 2 hrs. On the set-up: dose 10 mg/kg, route intraperitoneal. In kind it is ADME, organism-based. To be noted: read-out: Drug uptake.
A short description of data set [8]: Plasma concentration in C57B16 mouse at 10 mg/kg, ip after 2 hrs. It is filed as ADME, organism-based. On the set-up: dose 10 mg/kg, route intraperitoneal.

Broadly, the IC50 is the point on the concentration scale where inhibition reaches its midpoint. Usually half-life stands for the time in which the quantity being followed falls by half. A lower half-life goes with fast loss. A word on the bioavailability: it is the share of a dose that reaches the circulation, judged against a reference dose that is usually intravenous. Low values mean little systemic uptake, high ones much systemic uptake. The term AUC denotes the area under the concentration-time curve, a measure of exposure.

A value given as a limit tells only on which side of the number the result lay.

Mitogen-activated protein kinase 8, sequence (P45983 whole entry): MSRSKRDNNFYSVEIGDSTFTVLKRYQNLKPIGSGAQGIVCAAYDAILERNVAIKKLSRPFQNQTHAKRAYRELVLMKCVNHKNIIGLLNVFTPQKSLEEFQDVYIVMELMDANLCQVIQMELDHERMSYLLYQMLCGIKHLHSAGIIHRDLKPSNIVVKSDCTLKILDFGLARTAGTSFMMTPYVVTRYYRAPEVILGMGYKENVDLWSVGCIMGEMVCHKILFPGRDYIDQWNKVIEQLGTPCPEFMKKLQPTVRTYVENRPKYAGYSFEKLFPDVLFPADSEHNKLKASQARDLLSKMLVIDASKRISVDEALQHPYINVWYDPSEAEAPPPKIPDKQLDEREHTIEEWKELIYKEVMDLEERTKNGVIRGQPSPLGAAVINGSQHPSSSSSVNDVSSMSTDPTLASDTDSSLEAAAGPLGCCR
Mitogen-activated protein kinase 10, sequence (P53779 whole entry): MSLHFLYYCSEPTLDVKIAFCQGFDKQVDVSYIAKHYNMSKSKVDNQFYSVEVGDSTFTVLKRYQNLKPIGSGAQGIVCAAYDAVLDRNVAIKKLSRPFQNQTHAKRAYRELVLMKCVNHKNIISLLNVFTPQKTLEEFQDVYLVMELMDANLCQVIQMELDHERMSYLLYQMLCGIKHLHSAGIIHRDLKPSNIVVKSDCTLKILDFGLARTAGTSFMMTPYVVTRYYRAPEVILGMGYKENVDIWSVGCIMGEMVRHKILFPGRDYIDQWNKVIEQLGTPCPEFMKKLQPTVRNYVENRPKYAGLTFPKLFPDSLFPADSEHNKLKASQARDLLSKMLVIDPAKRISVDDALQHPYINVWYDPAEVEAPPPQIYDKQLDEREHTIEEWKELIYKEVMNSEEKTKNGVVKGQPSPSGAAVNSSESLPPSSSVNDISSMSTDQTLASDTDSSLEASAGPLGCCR

For the compound `COc1ccc(Oc2cc(Nc3cccc(Cl)c3C(N)=O)c(C(F)(F)F)cn2)cc1`, in data set [1], 2200 nM corresponded to half-maximal inhibition (IC50).

Regarding `NC(=O)c1ccccc1Nc1cc(Oc2cccc3ccccc23)ncc1C(F)(F)F`, the values for the half-inhibitory concentration (IC50) in data set [1] and in data set [2] were 990 nM and 650 nM, respectively.

As to `NC(=O)c1ccccc1Nc1cc(Oc2ccc(OC(F)(F)F)cc2)ncc1C(F)(F)F`, the IC50 in data set [1] and in data set [2] was 35 nM throughout.

In the case of `NC(=O)c1ccccc1Nc1cc(Oc2ccc(Br)cc2)ncc1C(F)(F)F`, the half-inhibitory concentration (IC50) in data set [1] stood at 380 nM; in data set [2], 480 nM.

As to `NC(=O)c1ccccc1Nc1cc(Oc2ccc(F)cc2)ncc1C(F)(F)F`, the concentration for half-maximal inhibition (IC50) is 200 nM in data set [1] and 100 nM in data set [2].

Turning to `COc1ccccc1Oc1cc(Nc2ccccc2C(N)=O)c(C(F)(F)F)cn1`, the IC50 was 3500 nM in data set [1] and 3200 nM in data set [2].

`COc1ccc(Oc2cc(Nc3cc(F)ccc3C(N)=O)c(C(F)(F)F)cn2)cc1` came in with a concentration for half-maximal inhibition (IC50) in data set [1] of 49 nM.

In turn, `NC(=O)c1ccccc1Nc1ccnc(Oc2ccc(N3CCNCC3)cc2)c1` gave a half-life in data set [3] of 1.5 h. Moreover, the IC50 in data set [1] came to 70 nM; in data set [2] it was 310 nM. This compound came in with a bioavailability in data set [4] of 14%. Besides, in data set [5], the clearance stood at 38 mL/min/kg. In addition, the AUC in data set [6] is 0.3 µM·h.

Compound `COc1ccc(Oc2cc(Nc3c(Cl)cccc3C(N)=O)c(C(F)(F)F)cn2)cc1` had a half-maximal inhibitory concentration (IC50) in data set [1] of 160 nM.

The compound `COc1ccc(Oc2cc(Nc3cccc(OC)c3C(N)=O)c(C(F)(F)F)cn2)cc1` yielded an IC50 in data set [1] of 2200 nM.

`NC(=O)c1ccccc1Nc1cc(Oc2ccc3ccccc3c2)ncc1C(F)(F)F`: half-maximal inhibition in data set [1] (IC50) was put at 320 nM. Compared with the last compound, the IC50 is about 6.9-fold lower.

Take `NC(=O)c1ccccc1Nc1cc(Oc2ccc3c(c2)OCO3)ncc1C(F)(F)F`: the values for the IC50 in data set [1] and in data set [2] were 48 nM and 44 nM, respectively.

In data set [3], `COc1ccc(Oc2ncc(Cl)c(Nc3ccccc3C(N)=O)n2)cc1` had a half-life of 0.5 h. The IC50 in data set [1] amounted to 7 nM; in data set [2], 4 nM. In addition, in data set [4], the bioavailability turned out to be 25%. Moreover, the clearance in data set [5] was found to be 22 mL/min/kg. The area under the curve (AUC) in data set [6] was 1 µM·h.

With `NC(=O)c1ccccc1Nc1ccnc(Oc2ccccc2)c1`, the IC50 in data set [1] was determined as 520 nM; in data set [2], 330 nM.

Consider `COc1ccc(Oc2cc(Nc3ccccc3C(N)=O)c(C(F)(F)F)cn2)c(Cl)c1`, for which the IC50 in data set [1] is 100 nM; in data set [2] it was 740 nM.

With `COc1ccc(Oc2cc(Nc3ccccc3-c3nnc[nH]3)c(Cl)cn2)cc1`, the 50% inhibitory concentration (IC50) in data set [1] was found to be 140 nM; in data set [2] it was 120 nM.

`NC(=O)c1ccccc1Nc1cc(Oc2ccc(-n3cncn3)cc2)ncc1C(F)(F)F` gave a half-life in data set [3] of 1 h. Besides, the IC50 in data set [1] was found to be 80 nM. Further, the bioavailability in data set [4] stood at 73%. Further, the concentration at 2 h came out at 2.5 µM in data set [7] and 15.7 µM in data set [8]. Further, in data set [5], the clearance was determined as 6 mL/min/kg. For the same compound, the exposure (AUC) in data set [6] worked out at 9.1 µM·h.

In turn, `COc1ccc(Oc2cc(Nc3cc(OC)ccc3C(N)=O)c(C(F)(F)F)cn2)cc1` returned an IC50 in data set [1] of 17 nM. In other words, the double-digit nanomolar range.

Take `COc1ccc(Oc2cc(Nc3ccccc3C(N)=O)c(Cl)cn2)cc1`: the half-life in data set [3] was 1 h. The values for the concentration for half-maximal inhibition (IC50) in data set [1] and in data set [2] were 15 nM and 8 nM, respectively. This compound registered a bioavailability in data set [4] of 90%. The concentration at 2 h in data set [7] is 1.8 µM; in data set [8] it was 2.4 µM. The same compound showed a clearance in data set [5] of 13 mL/min/kg. The area under the curve (AUC) in data set [6] was determined as 6.3 µM·h.

As for `COc1ccc(Oc2cc(Nc3ccccc3C(N)=O)c(C(F)(F)F)cn2)cc1`, the half-life in data set [3] was 1 h. The values for the IC50 in data set [1] and in data set [2] were 37 nM and 27 nM, respectively. In data set [4], the bioavailability came out at 79%. Moreover, the concentration at 2 h in data set [7] amounted to 5.2 µM; in data set [8], 10 µM. Moreover, in data set [5], the clearance worked out at 3 mL/min/kg. This compound yielded an AUC in data set [6] of 20.1 µM·h.

As to `COc1ccc(Oc2cc(Nc3ccc(Cl)cc3C(N)=O)c(C(F)(F)F)cn2)cc1`, the IC50 in data set [1] was determined as 30 nM. This lies in the double-digit nanomolar range.

For the compound `NC(=O)c1ccccc1Nc1cc(Oc2cccc(Cl)c2)ncc1C(F)(F)F`, in data set [1], half-maximal inhibition (IC50) was put at 200 nM.

Regarding `CNC(=O)c1ccccc1Nc1cc(Oc2ccc(OC)cc2)ncc1Cl`, the values for the IC50 in data set [1] and in data set [2] were 170 nM and 930 nM, respectively.

Turning to `COc1cccc(Oc2cc(Nc3ccccc3C(N)=O)c(C(F)(F)F)cn2)c1`, the IC50 in data set [1] was 70 nM; in data set [2] it was 38 nM.

On to `CC(C)(C)Oc1ccc(Oc2cc(Nc3ccccc3C(N)=O)c(C(F)(F)F)cn2)cc1`, for which the IC50 in data set [1] amounted to 27 nM; in data set [2], 22 nM.

In data set [1], `COc1ccc(Oc2cc(Nc3ccc(F)cc3C(N)=O)c(C(F)(F)F)cn2)cc1` returned an IC50 of 45 nM.

As to `CCCOc1ccc(Oc2cc(Nc3ccccc3C(N)=O)c(C(F)(F)F)cn2)cc1`, the half-maximal inhibitory concentration (IC50) in data set [1] worked out at 140 nM; in data set [2] it was 100 nM.

In data set [1], `NC(=O)c1ccccc1Nc1cc(Oc2ccc(N3CCNCC3)cc2)ncc1C(F)(F)F` registered an IC50 of 34 nM. In other words, the double-digit nanomolar range.

For the compound `NC(=O)c1ccccc1Nc1cc(Oc2ccc(-c3cccnc3)cc2)ncc1C(F)(F)F`, the results for the 50% inhibitory concentration (IC50) in data set [1] and in data set [2] were 72 nM and 53 nM, respectively.

Consider `COc1ccc(Oc2cc(Nc3c(F)cccc3C(N)=O)c(C(F)(F)F)cn2)cc1`, for which half-maximal inhibition in data set [1] (IC50) was put at 60 nM.

Consider `COc1ccc(Oc2cc(Nc3cc(Cl)ccc3C(N)=O)c(C(F)(F)F)cn2)cc1`, for which, in data set [1], it took 78 nM to reach half-maximal inhibition (IC50). The IC50 values of the last two compounds are within 1.5-fold of each other.

For `COc1ccc(Oc2cc(N(C)c3ccccc3C(N)=O)c(Cl)cn2)cc1`, in data set [2], the half-inhibitory concentration (IC50) is > 20000 nM.

Turning to `NC(=O)c1ccccc1Nc1cc(Oc2ccc(Cl)c(Cl)c2)ncc1C(F)(F)F`, the half-maximal inhibitory concentration (IC50) in data set [1] worked out at 100 nM; in data set [2], 680 nM.

In the case of `CCOc1ccc(Oc2cc(Nc3ccccc3C(N)=O)c(C(F)(F)F)cn2)cc1`, the figures for the IC50 in data set [1] and in data set [2] were 110 nM and 35 nM, respectively.

Regarding `COc1ccc(Oc2cc(Nc3ccccc3C(N)=O)c(F)cn2)cc1`, the half-maximal inhibitory concentration (IC50) in data set [1] is 48 nM; in data set [2], 26 nM.

For the origin of these results see ChEMBL document CHEMBL1921763, “Synthesis and SAR of 2-phenoxypyridines as novel c-Jun N-terminal kinase inhibitors” (Bioorg Med Chem Lett, 2011).
